Measurements reported in paper PMC7211193, “Evaluation of absorption, distribution, metabolism, and excretion of [^14C]-rucaparib, a poly(ADP-ribose) polymerase inhibitor, in patients with advanced solid tumors” (Investigational New Drugs, 2019).
Where “and” joins values, the source holds several entries; their conditions need not be identical. Equal values may be shown once.

How the values were obtained:
[1] = Total radioactivity (TRA) pharmacokinetics in plasma and blood by liquid scintillation counting; type: in vivo, human; settings: for Cmax, total radioactivity in plasma: patients N = 6
Experimental: (§1) Six patients received a single oral dose of [^14C]-rucaparib 600 mg (approximately 5.18 MBq or 140 μCi) on day 1 after fasting for 10 h and were confined at the study site for the collection of blood samples and excreta for a maximum of 12 days.
(§2) Blood samples were collected in K2 ethylenediaminetetraacetic acid (K2-EDTA) tubes at the following time points: 0 (predose), 1, 2, 3, 4, 8, 12, 24, 48, 72, 96, 120, and 144 h after administration. Blood samples were taken via an indwelling intravenous catheter or by direct vein puncture into appropriate tubes. Aliquots of blood samples were centrifuged at 1600–2000×g for 10 min at 4 °C, and supernatants were collected for plasma samples. All plasma and blood samples were stored at −70 °C until analysis. Plasma and blood samples were evaluated for total radioactivity (TRA) by liquid scintillation (LSC), parent drug concentrations by liquid chromatography (LC) with tandem mass spectrometry (MS/MS) analyses, and metabolite profiling by LC coupled to diode array ultraviolet (UV) detection and MS or radioactivity detection.
TRA analysis was performed on a Liquid Scintillation Counter Tri-Carb Model 3100TR (PerkinElmer). Aliquots of blood (300 μL), plasma (250 μL), and urine (1 mL) were transferred to scintillation vials. Blood samples were incubated at ≥60 °C with SOLVABLE (1 mL). After cooling to room temperature, EDTA (0.1 M, 100 μL) and hydrogen peroxide (225 μL) were added to dissolve blood cells, reduce foaming, and decrease color intensity. Finally, after incubation at ≥45 °C and ≥60 °C, Ultima Gold (≥5-fold) was added, and the samples were analyzed with LSC. For urine samples, Ultima Gold (≥5-fold) was added, and the samples were analyzed with LSC.
(§3) Blood and plasma TRA data and the plasma concentration of rucaparib were used to determine the Cmax, tmax, AUC from time zero to time of last measurable concentration (AUC0-t), and AUC from time zero to infinity (AUC0-inf), apparent volume of distribution (Vd/F), apparent clearance (CL/F), and terminal half-life (t1/2). Phoenix WinNonlin software version 6.3 or higher (Certara, Princeton, NJ, USA) was used to run a noncompartmental method analysis on the PK data.

[2] = Plasma pharmacokinetics of unchanged rucaparib (LC-MS/MS) after a single oral dose of [14C]-rucaparib 600 mg; type: in vivo, human
Experimental: as §1, §2
Plasma concentrations of rucaparib were determined by Q^2 Solutions (Ithaca, NY, USA) using a validated LC-MS/MS method as previously described. The concentration range for quantitation was 5–10,000 ng/mL.
as §3

[3] = single oral [14C]-rucaparib 600 mg, N = 6, mean ± SD
[4] = single oral [14C]-rucaparib 600 mg, N = 6, mean ± SD, listed as rucaparib
[5] = single oral [14C]-rucaparib 600 mg, N = 6, median (range)
[6] = unchanged rucaparib by LC-MS/MS, single oral 600 mg, N = 6, mean ± SD

CNCc1ccc(-c2[nH]c3cc(F)cc4c3c2CCNC4=O)cc1 [Rucaparib, rucaparib]
AUC0-24h/AUC0-inf ratio, blood TRA ([1]; in vivo): 0.563
AUC0-24h/AUC0-inf ratio, plasma TRA ([1]; in vivo): 0.461
AUC0-inf, total radioactivity in blood [1, 3]: 25,500 ± 5510 ng Eq h/mL
AUC0-inf, total radioactivity in plasma [1, 3]: 30,000 ± 7810 ng Eq h/mL
AUC0-t, total radioactivity in blood [1, 3]: 18,100 ± 5460 ng Eq h/mL
AUC0-t, total radioactivity in plasma [1, 3]: 24,100 ± 8580 ng Eq h/mL
Blood to plasma ratio of total radioactivity, AUC0-inf [1, 3]: 0.781 ± 0.041
Blood to plasma ratio of total radioactivity, Cmax [1, 3]: 1.00 ± 0.12
CL/F, total radioactivity in blood [1, 3]: 22.6 ± 2.22 L/h
CL/F, total radioactivity in plasma [1, 3]: 19.6 ± 4.83 L/h
Cmax, total radioactivity in blood [1, 3]: 882 ± 355 ng Eq/mL
Vd/F, total radioactivity in blood [1, 3]: 911 ± 246 L
Vd/F, total radioactivity in plasma [1, 3]: 814 ± 129 L
t1/2, total radioactivity in blood [1, 3]: 28.3 ± 8.49 h
t1/2, total radioactivity in plasma [1, 3]: 30.4 ± 8.89 h
Blood to plasma ratio of total radioactivity, Cmax [1, 4]: 1.0
t1/2, total radioactivity in blood [1, 4]: > 25 h
t1/2, total radioactivity in plasma [1, 4]: > 25 h and 30.4 h
tmax, total radioactivity in blood [1, 5]: 4 (0.933–8.00) h
tmax, total radioactivity in plasma [1, 5]: 4 (0.933–8.00) h
tmax, total radioactivity in blood ([1]; single oral [14C]-rucaparib 600 mg, N = 6, median (range), listed as [^14C]-rucaparib): approximately 4 h
tmax, total radioactivity in blood ([1]; single oral [14C]-rucaparib 600 mg, N = 6, median (range), listed as rucaparib): 4 h
Cmax, total radioactivity in plasma ([1]; single oral [14C]-rucaparib 600 mg, mean ± SD): 880 ± 309 ng Eq/mL
Cmax, total radioactivity in plasma ([1]; single oral [14C]-rucaparib 600 mg, mean ± SD, listed as rucaparib): 880 ng Eq/mL
AUC0-24h ratio of unlabeled rucaparib to TRA in plasma ([2]; LC-MS/MS versus LSC): 0.412
AUC(0-inf) ([2]; human, plasma, unchanged rucaparib by LC-MS/MS, single oral 600 mg, N = 6, mean ± SD, read-out: AUC0-inf, rucaparib concentration in plasma): 9340 ± 3480 ng·h/mL
AUC(0-t) ([2]; human, plasma, unchanged rucaparib by LC-MS/MS, single oral 600 mg, N = 6, mean ± SD, read-out: AUC0-t, rucaparib concentration in plasma): 8950 ± 3230 ng·h/mL
Cmax ([2]; human, plasma, unchanged rucaparib by LC-MS/MS, single oral 600 mg, N = 6, mean ± SD, read-out: Cmax, rucaparib concentration in plasma): 428 ± 154 ng/mL
Vd/F ([2]; human, plasma, unchanged rucaparib by LC-MS/MS, single oral 600 mg, N = 6, mean ± SD, read-out: Vd/F, rucaparib concentration in plasma): 2300 ± 490 L
AUC0-24h/AUC0-inf ratio, plasma unchanged rucaparib ([2]; in vivo): 0.537
Mean CL/F of rucaparib relative to that of TRA ([2]; plasma): approximately 3.8 fold
Mean Vd/F of rucaparib relative to that of TRA ([2]; plasma): ~2.8 fold
CL/F, rucaparib concentration in plasma [2, 6]: 73.9 ± 45.5 L/h
t1/2, rucaparib concentration in plasma [2, 6]: 25.9 ± 10.1 h
t1/2, rucaparib concentration in plasma ([2]; unchanged rucaparib by LC-MS/MS, single oral 600 mg, N = 6, mean ± SD, listed as rucaparib): > 25 h
tmax, rucaparib concentration in plasma ([2]; unchanged rucaparib by LC-MS/MS, single oral 600 mg, N = 6, median (range)): 4 (0.933–8.00) h
